Molecular target: T1, SYK kinase (Homo sapiens, UniProt P43405)
T1 construct: purchased Invitrogen, Carlsbad
Test: SYK assay (OMNIA Kinase Assay, Invitrogen)
Type: biochemical
Conditions: SYK Activities; 1 mM ATP, 10 μM Omnia Peptide Substrate Tyr 7, 30° C.
Summary of the method: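 Continuous-read fluorescence kinase assay: SOX-labelled Tyr 7 peptide (10 μM) with 1 mM ATP and 0.2 mM DTT, 30° C, reaction started by adding SYK. Fluorescence (ex 360/em 485 nm) read every 30 s for 30 min. IC50 from sigmoidal fit of reaction velocity versus inhibitor concentration.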

SMILES	IC50
O=S1(=O)CCc2ccc(Nc3nc(-c4cccs4)nc4cn[nH]c34)cc21 [Example 17, 6-((5-(thiophen-2-yl)-1H-pyrazolo[4,3-d]pyrimidin-7-yl)amino)-2,3-dihydrobenzo[b]thiophene 1,1-dioxide]	100 to 1000 nM
Nc1cccc(-c2nc(Nc3cnn(C4CCOCC4)c3)c3[nH]ncc3n2)c1 [Example 530, 5-(3-aminophenyl)-N-(1-(tetrahydro-2H-pyran-4-yl)-1H-pyrazol-4-yl)-1H-pyrazolo[4,3-d]pyrimidin-7-amine]	10 to 100 nM
Fc1cc(Nc2nc(C3CC3)nc3cn[nH]c23)ccc1N1CCOCC1 [Example 34, 5-cyclopropyl-N-(3-fluoro-4-morpholinophenyl)-1H-pyrazolo[4,3-d]pyrimidin-7-amine]	100 to 1000 nM
c1cc(-c2nc(Nc3ccc(N4CCOCC4)cc3)c3[nH]ncc3n2)co1 [Example 94, 5-(furan-3-yl)-N-(4-morpholinophenyl)-1H-pyrazolo[4,3-d]pyrimidin-7-amine]	10 to 100 nM
COCCCn1cc(Nc2nc(-c3cccc(NS(C)(=O)=O)c3)nc3cn[nH]c23)cn1 [Example 260, N-(3-(7-((1-(3-methoxypropyl)-1H-pyrazol-4-yl)amino)-1H-pyrazolo[4,3-d]pyrimidin-5-yl)phenyl)methanesulfonamide]	10 to 100 nM
c1coc(-c2nc(Nc3cnn(C4CCOCC4)c3)c3[nH]ncc3n2)c1 [Example 117, 5-(furan-2-yl)-N-(1-(tetrahydro-2H-pyran-4-yl)-1H-pyrazol-4-yl)-1H-pyrazolo[4,3-d]pyrimidin-7-amine]	10 to 100 nM
CC(C)Cn1cc(Nc2nc(C3CCC3)nc3cn[nH]c23)cn1 [Example 234, 5-cyclobutyl-N-(1-isobutyl-1H-pyrazol-4-yl)-1H-pyrazolo[4,3-d]pyrimidin-7-amine]	100 to 1000 nM
Clc1c(Nc2nc(C3CCC3)nc3cn[nH]c23)cnn1C1CCNCC1 [Example 364, N-(5-chloro-1-(piperidin-4-yl)-1H-pyrazol-4-yl)-5-cyclobutyl-1H-pyrazolo[4,3-d]pyrimidin-7-amine]	100 to 1000 nM
OCCn1cc(Nc2nc(-c3ccc4cn[nH]c4c3)nc3cn[nH]c23)cn1 [Example 476, 2-(4-((5-(1H-indazol-6-yl)-1H-pyrazolo[4,3-d]pyrimidin-7-yl)amino)-1H-pyrazol-1-yl)ethan-1-ol]	10 to 100 nM
COCCn1ncc(Nc2nc(-c3ccco3)nc3cn[nH]c23)c1N(C)C [Example 404, N4-(5-(furan-2-yl)-1H-pyrazolo[4,3-d]pyrimidin-7-yl)-1-(2-methoxyethyl)-N5,N5-dimethyl-1H-pyrazole-4,5-diamine]	100 to 1000 nM
FC(F)(F)Cn1cc(Nc2nc(-c3ccc4cn[nH]c4c3)nc3cn[nH]c23)cn1 [Example 517, 5-(1H-indazol-6-yl)-N-(1-(2,2,2-trifluoroethyl)-1H-pyrazol-4-yl)-1H-pyrazolo[4,3-d]pyrimidin-7-amine]	10 to 100 nM
COc1cccc(-c2nc(Nc3cnn(C4CC4)c3)c3[nH]ncc3n2)c1 [Example 406, N-(1-cyclopropyl-1H-pyrazol-4-yl)-5-(3-methoxyphenyl)-1H-pyrazolo[4,3-d]pyrimidin-7-amine]	100 to 1000 nM
OCCN1CCN(c2ccc(Nc3nc(-c4ccc5cn[nH]c5c4)nc4cn[nH]c34)cc2)CC1 [Example 422, 2-(4-(4-((5-(1H-indazol-6-yl)-1H-pyrazolo[4,3-d]pyrimidin-7-yl)amino)phenyl)piperazin-1-yl)ethan-1-ol]	10 to 100 nM
CC(=O)N1CCC(n2cc(Nc3nc(C(C)C)nc4cn[nH]c34)cn2)CC1 [Example 186, 1-(4-(4-((5-isopropyl-1H-pyrazolo[4,3-d]pyrimidin-7-yl)amino)-1H-pyrazol-1-yl)piperidin-1-yl)ethan-1-one]	100 to 1000 nM
CC(C)(C#N)n1cc(Nc2nc(-c3ccco3)nc3cn[nH]c23)cn1 [Example 211, 2-(4-((5-(furan-2-yl)-1H-pyrazolo[4,3-d]pyrimidin-7-yl)amino)-1H-pyrazol-1-yl)-2-methylpropanenitrile]	100 to 1000 nM
COc1ccc(Nc2nc(-c3c(F)cccc3Cl)nc3cn[nH]c23)cc1OC [Example 513, 5-(2-chloro-6-fluorophenyl)-N-(3,4-dimethoxyphenyl)-1H-pyrazolo[4,3-d]pyrimidin-7-amine]	100 to 1000 nM
O=C1COc2ccc(Nc3nc(C4CC4)nc4cn[nH]c34)cc2N1 [Example 21, 6-((5-cyclopropyl-1H-pyrazolo[4,3-d]pyrimidin-7-yl)amino)-2H-benzo[b][1,4]oxazin-3(4H)-one]	10 to 100 nM
c1cc(N2CCOCC2)ccc1Nc1nc(C2CCC2)nc2cn[nH]c12 [Example 120, 5-cyclobutyl-N-(4-morpholinophenyl)-1H-pyrazolo[4,3-d]pyrimidin-7-amine]	< 10 nM
COC(=O)c1cccc(-c2nc(Nc3cnn(C4CCOCC4)c3)c3[nH]ncc3n2)c1 [Example 216, methyl 3-(7-((1-(tetrahydro-2H-pyran-4-yl)-1H-pyrazol-4-yl)amino)-1H-pyrazolo[4,3-d]pyrimidin-5-yl)benzoate]	10 to 100 nM

Further lines, results first:

IC50	SMILES
10 to 100 nM	Oc1c(Cl)cc(Nc2nc(-c3c(F)cccc3F)nc3cn[nH]c23)cc1Cl [Example 540, 2,6-dichloro-4-((5-(2,6-difluorophenyl)-1H-pyrazolo[4,3-d]pyrimidin-7-yl)amino)phenol]
10 to 100 nM	OC1CCN(c2ccc(Nc3nc(-c4c(F)cccc4F)nc4cn[nH]c34)cc2)CC1 [Example 522, 1-(4-((5-(2,6-difluorophenyl)-1H-pyrazolo[4,3-d]pyrimidin-7-yl)amino)phenyl)piperidin-4-ol]
< 10 nM	c1cc(-c2nc(Nc3cnn(C4CCOCC4)c3)c3[nH]ncc3n2)co1 [Example 146, 5-(furan-3-yl)-N-(1-(tetrahydro-2H-pyran-4-yl)-1H-pyrazol-4-yl)-1H-pyrazolo[4,3-d]pyrimidin-7-amine]
100 to 1000 nM	CC(C)n1ncc(Nc2nc(C3CCC3)nc3cn[nH]c23)c1Cl [Example 312, N-(5-chloro-1-isopropyl-1H-pyrazol-4-yl)-5-cyclobutyl-1H-pyrazolo[4,3-d]pyrimidin-7-amine]
10 to 100 nM	COc1ccc(Nc2nc(C3CC3)nc3cn[nH]c23)cc1OC [Example 19, 5-cyclopropyl-N-(3,4-dimethoxyphenyl)-1H-pyrazolo[4,3-d]pyrimidin-7-amine]
10 to 100 nM	CC(C)n1cc(Nc2nc(C(C)(C)C)nc3cn[nH]c23)cn1 [Example 269, 5-(tert-butyl)-N-(1-isopropyl-1H-pyrazol-4-yl)-1H-pyrazolo[4,3-d]pyrimidin-7-amine]
100 to 1000 nM	COc1ccc(Nc2nc(-c3cnn(C(C)C(C)C)c3)nc3cn[nH]c23)cc1OC (centres unmarked) [Example 511, N-(3,4-dimethoxyphenyl)-5-(1-(3-methylbutan-2-yl)-1H-pyrazol-4-yl)-1H-pyrazolo[4,3-d]pyrimidin-7-amine]
100 to 1000 nM	COCC(C)(C)n1cc(Nc2nc(-c3ccoc3)nc3cn[nH]c23)cn1 [Example 290, 5-(furan-3-yl)-N-(1-(1-methoxy-2-methylpropan-2-yl)-1H-pyrazol-4-yl)-1H-pyrazolo[4,3-d]pyrimidin-7-amine]
100 to 1000 nM	COc1cc(Nc2nc(-c3cccc(NS(C)(=O)=O)c3)nc3cn[nH]c23)ccc1N1CCOCC1 [Example 41, N-(3-(7-((3-methoxy-4-morpholinophenyl)amino)-1H-pyrazolo[4,3-d]pyrimidin-5-yl)phenyl)methanesulfonamide]
< 10 nM	CC(C)n1cc(Nc2nc(C3CC3)nc3cn[nH]c23)cn1 [Example 229, 5-cyclopropyl-N-(1-isopropyl-1H-pyrazol-4-yl)-1H-pyrazolo[4,3-d]pyrimidin-7-amine]
10 to 100 nM	OCCN1CCN(c2ccc(Nc3nc(-c4ccoc4)nc4cn[nH]c34)cc2)CC1 [Example 442, 2-(4-(4-((5-(furan-3-yl)-1H-pyrazolo[4,3-d]pyrimidin-7-yl)amino)phenyl)piperazin-1-yl)ethan-1-ol]
100 to 1000 nM	CC(C)(C)N1CCN(c2ccc(Nc3nc(-c4ccccc4F)nc4cn[nH]c34)cc2)CC1 [Example 23, N-(4-(4-(tert-butyl)piperazin-1-yl)phenyl)-5-(2-fluorophenyl)-1H-pyrazolo[4,3-d]pyrimidin-7-amine]
< 10 nM	c1nn(C2CCNC2)cc1Nc1nc(C2CCC2)nc2cn[nH]c12 (centres unmarked) [Example 462, 5-cyclobutyl-N-(1-(pyrrolidin-3-yl)-1H-pyrazol-4-yl)-1H-pyrazolo[4,3-d]pyrimidin-7-amine]
< 10 nM	CC(=O)N1CCC(n2cc(Nc3nc(-c4cnn(C)c4)nc4cn[nH]c34)cn2)CC1 [Example 189, 1-(4-(4-((5-(1-methyl-1H-pyrazol-4-yl)-1H-pyrazolo[4,3-d]pyrimidin-7-yl)amino)-1H-pyrazol-1-yl)piperidin-1-yl)ethan-1-one]
100 to 1000 nM	CN1CCN(C(=O)c2ccc(Nc3nc(-c4c(F)cccc4F)nc4cn[nH]c34)cc2)CC1 [Example 500, (4-((5-(2,6-difluorophenyl)-1H-pyrazolo[4,3-d]pyrimidin-7-yl)amino)phenyl)(4-methylpiperazin-1-yl)methanone]
100 to 1000 nM	COc1cc(Nc2nc(-c3cccs3)nc3cn[nH]c23)ccc1N1CCOCC1 [Example 37, N-(3-methoxy-4-morpholinophenyl)-5-(thiophen-2-yl)-1H-pyrazolo[4,3-d]pyrimidin-7-amine]
100 to 1000 nM	c1nn(C2CCNC2)cc1Nc1nc(C2C3CCCCC32)nc2cn[nH]c12 (centres unmarked) [Example 474, 5-(bicyclo[4.1.0]heptan-7-yl)-N-(1-(pyrrolidin-3-yl)-1H-pyrazol-4-yl)-1H-pyrazolo[4,3-d]pyrimidin-7-amine]
100 to 1000 nM	CC(=O)N1CCC(n2cc(Nc3nc(-c4cocn4)nc4cn[nH]c34)cn2)CC1 [Example 130, 1-(4-(4-((5-(oxazol-4-yl)-1H-pyrazolo[4,3-d]pyrimidin-7-yl)amino)-1H-pyrazol-1-yl)piperidin-1-yl)ethan-1-one]
100 to 1000 nM	c1cncc(-c2nc(Nc3ccc(N4CCOCC4)cc3)c3n[nH]cc3n2)c1 [Example 162, N-(4-morpholinophenyl)-5-(pyridin-3-yl)-2H-pyrazolo[4,3-d]pyrimidin-7-amine]
